According to PubChem BioAssay (NCI):
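Values below derive from 48-hour exposures of cells grown in 96-well plates, with endpoints linearly interpolated between the two concentrations bracketing the appropriate inhibition level. GI50 = concentration required for 50% inhibition of growth. Definition used: TGI = concentration required for complete inhibition of growth.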

Tests used:
Assay in all cases: DTP human tumour cell line panel, 48 h
[1] = test system: NCI-H226 lung
[2] = test system: NCI-H23 lung
[3] = test system: NCI-H460 lung
[4] = test system: NCI/ADR-RES ovarian
[5] = test system: OVCAR-3 ovarian
[6] = test system: OVCAR-4 ovarian
[7] = test system: OVCAR-5 ovarian
[8] = test system: OVCAR-8 ovarian
[9] = test system: PC-3 prostate
[10] = test system: RPMI-8226 leukemia
[11] = test system: RXF 393 renal
[12] = test system: SF-268 CNS
[13] = test system: SF-295 CNS
[14] = test system: SF-539 CNS
[15] = test system: SK-MEL-2 melanoma
[16] = test system: SK-MEL-28 melanoma
[17] = test system: SK-MEL-5 melanoma
[18] = test system: SK-OV-3 ovarian
[19] = test system: SN12C renal
[20] = test system: SNB-19 CNS
[21] = test system: SNB-75 CNS
[22] = test system: SR leukemia
[23] = test system: SW-620 colon
[24] = test system: T-47D breast
[25] = test system: TK-10 renal
[26] = test system: U251 CNS
[27] = test system: UACC-257 melanoma
[28] = test system: UACC-62 melanoma
[29] = test system: UO-31 renal

COc1ccc(-c2cnoc2-c2ccc(OC)cc2O)cc1
TGI [1]: 55.6 µM | GI50 [2]: 4.31 µM | TGI [2]: 50.3 µM | GI50 [3]: 3.24 µM | TGI [3]: 12.4 µM | GI50 [4]: 1.75 µM | TGI [4]: 19.1 µM | GI50 [5]: 2.32 µM | TGI [5]: 5.76 µM | GI50 [6]: 10.5 µM | TGI [6]: > 100 µM | GI50 [7]: 13.5 µM | TGI [7]: > 100 µM | GI50 [8]: 4.49 µM | TGI [8]: 30.4 µM | GI50 [9]: 4.52 µM | TGI [9]: 54.3 µM | GI50 [10]: 4.98 µM | TGI [10]: 67.4 µM | GI50 [11]: 3.4 µM | TGI [11]: 11.1 µM | GI50 [12]: 6.32 µM | TGI [12]: 42.6 µM | GI50 [13]: 2.99 µM | TGI [13]: 14.8 µM | GI50 [14]: 3.66 µM | TGI [14]: 16.6 µM | GI50 [15]: 3.33 µM | TGI [15]: 11.8 µM | GI50 [16]: 5.42 µM | TGI [16]: 60.5 µM | GI50 [17]: 3.52 µM | TGI [17]: 14.2 µM | GI50 [18]: 4.17 µM | TGI [18]: 24 µM | GI50 [19]: 5 µM | TGI [19]: 41.1 µM | GI50 [20]: 5.29 µM | TGI [20]: > 100 µM | GI50 [21]: 1.72 µM | TGI [21]: 9.86 µM | GI50 [22]: 0.628 µM | TGI [22]: 13 µM | GI50 [23]: 2.05 µM | TGI [23]: > 100 µM | GI50 [24]: 8.64 µM | TGI [24]: > 100 µM | GI50 [25]: 11.8 µM | TGI [25]: 47.5 µM | GI50 [26]: 3.58 µM | TGI [26]: 18.3 µM | GI50 [27]: 6.9 µM | TGI [27]: 41.6 µM | GI50 [28]: 2.61 µM | TGI [28]: 20.2 µM | GI50 [29]: 11.6 µM | TGI [29]: 53.3 µM
